Data published in US6805870B1 (priority 1994, dated 2004).
Read-outs that look alike come from different tables or passages of the source.

Test system: VSV
Type: in vivo, mouse

SMILES: c1ccc([C@H]2CN3CCSC3=N2)cc1 [levamisole]
- efficacy index (mean of at least 2 tests) (mouse, in vivo): 0
- efficacy index (mean of at least 2 tests) (preparation dilution 1:4): toxic
- efficacy index (mean of at least 2 tests) (preparation dilution 1:8): 0
- efficacy index (mean of at least 2 tests) (preparation dilution 1:32): 0
- efficacy index (mean of at least 2 tests) (preparation dilution 1:64): 0
- efficacy index (mean of at least 2 tests) (preparation dilution 1:128): 0
